Patent US20240376094A2, “SELECTIVE BCL-XL PROTAC COMPOUNDS AND METHODS OF USE” (Les Laboratoires Servier, priority 2021, published 2024)

What was measured:
Assay type in all cases: cell-based
[1] = target: T1, HiBiT-tagged BCL-xL (Homo sapiens, UniProt Q07817); test: NCI-H1650 BCL-xL protein levels, Nano-Glo HiBiT Lytic Detection; conditions: NCI-H1650 expressing HiBiT-tagged BCL-xL, overnight incubation, read-out: Bcl-xl HIBIT NCIH1650 DC50
T1 construct: expressed in transfected cells; host or cells: NCI-H1650 (ATCC No. CRL-5883), engineered HiBiT cell line
How it was run: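 NCI-H1650 cells expressing HiBiT-tagged BCL-xL (5000/well) were treated overnight at 37° C with 10 concentrations, final 0.508 nM-10 μM, in triplicate. Remaining BCL-xL measured by Nano-Glo HiBiT lytic luminescence, normalized to untreated cells; 50% values by four-parameter logistic fit.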

[2] = target: T2, Bcl-xL (Homo sapiens, UniProt Q07817); test: HCT116 Bcl-xL degradation, capillary-based immunoassay (WES); conditions: HCT116, 24 h, 9-point serial dilution
T2 construct: Measured levels of Bcl-xL protein of HCT116 cells treated with the tested compounds; host or cells: HCT116
How it was run: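 HCT116 cells treated 24 h with compound at 10/100 nM and/or 9-point dilution (quadruplicates), then lysed. Bcl-xL measured by capillary WES immunoassay, normalized to cofilin and expressed as % of untreated cells. DC50 from four-parameter curve fit.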

[3] = test system: EBC-1 lung cancer cell line; test: EBC-1 cell proliferation, CellTiter-Glo assay; conditions: Homo sapiens, 120 h; Ebc-1 cell viability, CTG assay, 5 days of treatment; read-out: CTG 5 day Ebc1 GI50
How it was run: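 EBC-1 cells seeded at 1000 per well overnight, then exposed to 10-point dilutions (0.508 nM–10 μM final) for 5 days at 37 °C, in triplicate. ATP luminescence by CellTiter-Glo, normalised to untreated wells; GI50 from four-parameter logistic fit, runs valid only with at least one doubling.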

[4] = test system: MOLT-4 cells; test: MOLT-4 cell viability, CTG assay; conditions: Homo sapiens, MOLT-4, 48 h
How it was run: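 Cells grown in RPMI 1640 with 10% FBS at 37° C, 5% CO2, then exposed to compounds for 48 h (11-point 5-fold dilution, triplicates). ATP measured by CellTiter-Glo luminescence; IC50 from four-parameter fit versus control, mean of ≥2 independent experiments.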

T2 sequence (Q07817 whole entry): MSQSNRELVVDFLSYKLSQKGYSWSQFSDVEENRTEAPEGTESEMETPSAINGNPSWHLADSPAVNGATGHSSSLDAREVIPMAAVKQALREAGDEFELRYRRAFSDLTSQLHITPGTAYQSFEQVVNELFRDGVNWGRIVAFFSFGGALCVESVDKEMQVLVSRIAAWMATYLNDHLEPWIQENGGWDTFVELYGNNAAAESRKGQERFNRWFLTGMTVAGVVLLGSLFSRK
T1 sequence (Q07817 whole entry): as above

| Structure (SMILES) | DC50 [1] | DC50 [2] | GI50 [3] | IC50 [4] |
| --- | --- | --- | --- | --- |
| Cc1ncsc1-c1ccc([C@H](C)NC(=O)[C@@H]2C[C@@H](O)CN2C(=O)[C@@H](NC(=O)COCCOCCOCCN(C)CCOC23CC4(C)CC(C)(CC(Cn5ncc(-c6ccc(N7CCCc8c7nnc(Nc7nc9ccccc9s7)c8C)nc6C(=O)O)c5C)(C4)C2)C3)C(C)(C)C)cc1 [Example 113, 6-[3-(1,3-benzothiazol-2-ylamino)-4-methyl-6,7-dihydro-5H-pyrido[2,3-c]pyridazin-8-yl]-3-[1-[[3-[2-[2-[2-[2-[2-[[(1S)-1-[(2S,4R)-4-hydroxy-2-[[(1S)-1-[4-(4-methylthiazol-5-yl)phenyl]ethyl]carbamoyl]pyrrolidine-1-carbonyl]-2,2-dimethyl-propyl]amino]-2-oxo-ethoxy]ethoxy]ethoxy]ethyl-methyl-amino]ethoxy]-5,7-dimethyl-1-adamantyl]methyl]-5-methyl-pyrazol-4-yl]pyridine-2-carboxylic acid] | > 1670 nM | > 316 nM | 49 nM | 20.6 nM |
| Cc1cc(N(CCCCN(C)C(=O)CCCCCCCCCC(=O)N[C@H](C(=O)N2C[C@H](O)C[C@H]2C(=O)N[C@@H](C)c2ccc(-c3scnc3C)cc2)C(C)(C)C)c2ccc(-c3cnn(CC45CC6(C)CC(C)(C4)CC(OCCN(C)C)(C6)C5)c3C)c(C(=O)O)n2)nnc1Nc1nc2ccccc2s1 [Example 114, 6-[[6-(1,3-benzothiazol-2-ylamino)-5-methyl-pyridazin-3-yl]-[4-[[11-[[(1S)-1-[(2S,4R)-4-hydroxy-2-[[(1S)-1-[4-(4-methylthiazol-5-yl)phenyl]ethyl]carbamoyl]pyrrolidine-1-carbonyl]-2,2-dimethyl-propyl]amino]-11-oxo-undecanoyl]-methyl-amino]butyl]amino]-3-[1-[[3-[2-(dimethylamino)ethoxy]-5,7-dimethyl-1-adamantyl]methyl]-5-methyl-pyrazol-4-yl]pyridine-2-carboxylic acid] | 1 nM | 2.67 nM | 1720 nM | 24.8 nM |
| Cc1cc(N(CCCCN(C)C(=O)CCCCCCCCCCCCC(=O)N[C@H](C(=O)N2C[C@H](O)C[C@H]2C(=O)N[C@@H](C)c2ccc(-c3scnc3C)cc2)C(C)(C)C)c2ccc(-c3cnn(CC45CC6(C)CC(C)(C4)CC(OCCN(C)C)(C6)C5)c3C)c(C(=O)O)n2)nnc1Nc1nc2ccccc2s1 [Example 116, 6-[[6-(1,3-benzothiazol-2-ylamino)-5-methyl-pyridazin-3-yl]-[4-[[14-[[(1S)-1-[(2S,4R)-4-hydroxy-2-[[(1S)-1-[4-(4-methylthiazol-5-yl)phenyl]ethyl]carbamoyl]pyrrolidine-1-carbonyl]-2,2-dimethyl-propyl]amino]-14-oxo-tetradecanoyl]-methyl-amino]butyl]amino]-3-[1-[[3-[2-(dimethylamino)ethoxy]-5,7-dimethyl-1-adamantyl]methyl]-5-methyl-pyrazol-4-yl]pyridine-2-carboxylic acid] | 1 nM | 3.6 nM | 45 nM | 16.1 nM |
| Cc1ncsc1-c1ccc(CNC(=O)[C@@H]2C[C@@H](O)CN2C(=O)[C@@H](NC(=O)C2(F)CC2)C(C)(C)SCCCCCCCCCCCN(C)CCOC23CC4(C)CC(C)(CC(Cn5ncc(-c6ccc(N7CCCc8c7nnc(Nc7nc9ccccc9s7)c8C)nc6C(=O)O)c5C)(C4)C2)C3)cc1 [Example 117, 6-[3-(1,3-benzothiazol-2-ylamino)-4-methyl-6,7-dihydro-5H-pyrido[2,3-c]pyridazin-8-yl]-3-[1-[[3-[2-[11-[(2R)-2-[(1-fluorocyclopropanecarbonyl)amino]-3-[(2S,4R)-4-hydroxy-2-[[4-(4-methylthiazol-5-yl)phenyl]methylcarbamoyl]pyrrolidin-1-yl]-1,1-dimethyl-3-oxo-propyl]sulfanylundecyl-methyl-amino]ethoxy]-5,7-dimethyl-1-adamantyl]methyl]-5-methyl-pyrazol-4-yl]pyridine-2-carboxylic acid] | > 1670 nM | 1.17 nM | 89 nM | 8.25 nM |
